Tested on: HeyA8 tumor model
Test: HeyA8 intraperitoneal ovarian cancer mouse model
Type: in vivo
Details: all four groups compared; EP-100 0.2 mg/kg, olaparib 50 mg/kg

O=C(c1cc(Cc2n[nH]c(=O)c3ccccc23)ccc1F)N1CCN(C(=O)C2CC2)CC1 [olaparib]
Body weights of the host mice at the end of the experiment: did not differ significantly

— publication PMC6497555 (Molecular cancer therapeutics, 2019)
